According to ChEMBL document CHEMBL5375967 (J Med Chem, 2023):
Converted amounts (≈) assume the structure as drawn. The source made the active and inactive calls. No cut-off for these calls is given here.

Experiments:
[1] = Drug concentration in blood of arachidonic acid-induced skin inflammation 129S2/SvPasCrl mouse model at 3 mg/kg, po measured after 4 hrs; format: ADME, organism-based; conditions: read-out: Ct
[2] = Oral bioavailability in Wistar rat at 3 mg/kg measured upto 24 hrs by LC-MS/MS analysis; format: ADME, organism-based; conditions: in vivo
[3] = MRT in dog at 1 mg/kg, iv measured upto 24 hrs by LC-MS/MS analysis; format: ADME, organism-based, Canis lupus familiaris; conditions: in vivo
[4] = Metabolic stability in rat hepatocyte assessed as intrinsic clearance; format: ADME, cell-based; conditions: hepatocytes
[5] = MRT in Wistar rat at 1 mg/kg, iv measured upto 24 hrs by LC-MS/MS analysis; format: ADME, organism-based; conditions: in vivo
[6] = Metabolic stability in mouse hepatocyte assessed as intrinsic clearance; format: ADME, cell-based; conditions: hepatocytes
[7] = AUC (0 to infinity) in dog at 3 mg/kg, po measured upto 24 hrs by LC-MS/MS analysis; format: ADME, organism-based, Canis lupus familiaris; design: time < 24 hrs, dose 3 mg/kg, route po; conditions: in vivo
[8] = Inhibition of calcium ionophore A23187-stimulated LTB4 release in C57BL/6 mouse model at 10 mg/kg, po bid measured after 2 hrs; format: functional
in vivo [9] = conditions: C57BL/6, mouse, in vivo, po, 10 mg/kg
in vivo [10] = conditions: Sprague-Dawley, rat, po, 3 mg/kg
[11] = Clearance in Wistar rat at 1 mg/kg, iv measured upto 24 hrs by LC-MS/MS analysis; format: ADME, organism-based; conditions: in vivo
[12] = molecular target: T1, Voltage-gated inwardly rectifying potassium channel KCNH2 (Homo sapiens, UniProt Q12809)
[13] = Inhibition of neutrophil influx in arachidonic acid-stimulated skin inflammation 129S2/SvPasCrl mouse model assessed as effect on MPO level in skin at 0.3 mg/kg, po pretreated with compound for 4 hrs followed by arachidonic acid stimulation and measured after 1 hr; format: functional; conditions: time 5 hrs
[14] = AUC (0 to infinity) in Wistar rat at 30 mg/kg, po measured upto 24 hrs by LC-MS/MS analysis; format: ADME, organism-based; design: dose 30 mg/kg, time < 24 hrs, route po; conditions: in vivo
in vivo [15] = conditions: Sprague-Dawley, rat, iv, 1 mg/kg
[16] = Solubility of compound in SGF at pH […]; format: physicochemical
[17] = system: Leukotriene A4 hydrolase (Homo sapiens); assay: Inhibition of LTB4 in calcium ionophore A23187-stimulated human PBMC cells at 1 uM pretreated with compound for 15 mins followed by calcium ionophore A23187 induction and measured after 2 hrs by LC-MS/MS analysis; conditions: time 135.0 min
physchem = conditions: octanol/water, pH 7.4
[18] = Oral bioavailability in dog at 3 mg/kg measured upto 24 hrs by LC-MS/MS analysis; format: ADME, organism-based, Canis lupus familiaris; conditions: in vivo
in vivo [19] = conditions: Sprague-Dawley, rat, iv, 1 mg/kg; remark: listed apart in the source
[20] = molecular target: T2, Leukotriene A-4 hydrolase (Homo sapiens, UniProt P09960); assay: Inhibition of LTA4H (unknown origin) using Arg-AMC as substrate preincubated with compound for 15 mins followed by substrate addition and measured after every 10 mins for 300 mins by fluorescence based assay
T2 sequence (P09960 whole entry): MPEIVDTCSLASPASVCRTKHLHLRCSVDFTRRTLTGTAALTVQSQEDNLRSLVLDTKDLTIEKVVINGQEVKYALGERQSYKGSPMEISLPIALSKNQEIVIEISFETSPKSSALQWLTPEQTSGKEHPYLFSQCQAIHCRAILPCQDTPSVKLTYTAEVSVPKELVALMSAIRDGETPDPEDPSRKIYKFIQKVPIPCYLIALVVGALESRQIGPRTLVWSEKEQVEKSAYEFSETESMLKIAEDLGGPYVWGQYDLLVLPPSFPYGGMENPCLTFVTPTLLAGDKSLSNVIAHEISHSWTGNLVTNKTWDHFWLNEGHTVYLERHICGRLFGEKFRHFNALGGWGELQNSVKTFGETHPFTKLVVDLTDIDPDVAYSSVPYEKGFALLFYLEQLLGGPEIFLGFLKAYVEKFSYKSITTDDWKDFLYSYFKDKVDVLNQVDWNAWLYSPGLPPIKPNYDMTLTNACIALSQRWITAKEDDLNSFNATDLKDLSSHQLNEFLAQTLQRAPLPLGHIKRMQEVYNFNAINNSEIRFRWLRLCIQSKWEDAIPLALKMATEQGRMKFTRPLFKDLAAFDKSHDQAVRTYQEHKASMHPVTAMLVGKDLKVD

[21] = molecular target: T1, Voltage-gated inwardly rectifying potassium channel KCNH2; remark: listed apart in the source
[22] = AUC (0 to infinity) in Wistar rat at 3 mg/kg, po measured upto 24 hrs by LC-MS/MS analysis; format: ADME, organism-based; design: time < 24 hrs, dose 3 mg/kg, route po; conditions: in vivo
[23] = Solubility of compound in FeSSIF at pH 6.8; format: physicochemical
[24] = Volume of distribution at steady state in dog at 1 mg/kg, iv measured upto 24 hrs by LC-MS/MS analysis; format: ADME, organism-based, Canis lupus familiaris; conditions: in vivo, read-out: Vdss
Mus musculus = assay: Antiarthritic activity in KRN passive serum-induced arthritis C57BL/6 mouse model assessed as reduction in macrophage numbers at 0.1 to 10 mg/kg, po bid measured on day 7 at 2 hrs after first dose and 14 hrs after second dose; format: functional, organism-based; conditions: dose 0.1-10 mg/kg, time 7.0 day
[25] = Cmax in Wistar rat at 3 mg/kg, po measured upto 24 hrs by LC-MS/MS analysis; format: ADME, organism-based; design: dose 3 mg/kg, time < 24 hrs, route po; conditions: in vivo
in vitro [26] = conditions: human, liver microsomes
[27] = AUC (0 to infinity) in C57BL/6 mouse at 3 mg/kg, po measured upto 24 hrs by LC-MS/MS analysis; format: ADME, organism-based; design: time < 24 hrs, dose 3 mg/kg, route po; conditions: in vivo
in vitro [28] = conditions: mouse, liver microsomes
[29] = Inhibition of neutrophil influx in arachidonic acid-stimulated skin inflammation 129S2/SvPasCrl mouse model assessed as effect on MPO level in skin at 3 mg/kg, po pretreated with compound for 4 hrs followed by arachidonic acid stimulation and measured after 1 hr; format: functional; conditions: time 5 hrs
in vitro [30] = conditions: dog, MDCK
[31] = Half life in Wistar rat at 1 mg/kg, iv measured upto 24 hrs by LC-MS/MS analysis; format: ADME, organism-based; conditions: in vivo
[32] = Inhibition of neutrophil influx in arachidonic acid-stimulated skin inflammation 129S2/SvPasCrl mouse model assessed as effect on MPO level in skin at 0.03 mg/kg, po pretreated with compound for 4 hrs followed by arachidonic acid stimulation and measured after 1 hr; format: functional; conditions: time 5 hrs
in vivo [33] = conditions: Sprague-Dawley, rat, iv, 1 mg/kg; remark: listed apart in the source

T1 sequence (Q12809 whole entry): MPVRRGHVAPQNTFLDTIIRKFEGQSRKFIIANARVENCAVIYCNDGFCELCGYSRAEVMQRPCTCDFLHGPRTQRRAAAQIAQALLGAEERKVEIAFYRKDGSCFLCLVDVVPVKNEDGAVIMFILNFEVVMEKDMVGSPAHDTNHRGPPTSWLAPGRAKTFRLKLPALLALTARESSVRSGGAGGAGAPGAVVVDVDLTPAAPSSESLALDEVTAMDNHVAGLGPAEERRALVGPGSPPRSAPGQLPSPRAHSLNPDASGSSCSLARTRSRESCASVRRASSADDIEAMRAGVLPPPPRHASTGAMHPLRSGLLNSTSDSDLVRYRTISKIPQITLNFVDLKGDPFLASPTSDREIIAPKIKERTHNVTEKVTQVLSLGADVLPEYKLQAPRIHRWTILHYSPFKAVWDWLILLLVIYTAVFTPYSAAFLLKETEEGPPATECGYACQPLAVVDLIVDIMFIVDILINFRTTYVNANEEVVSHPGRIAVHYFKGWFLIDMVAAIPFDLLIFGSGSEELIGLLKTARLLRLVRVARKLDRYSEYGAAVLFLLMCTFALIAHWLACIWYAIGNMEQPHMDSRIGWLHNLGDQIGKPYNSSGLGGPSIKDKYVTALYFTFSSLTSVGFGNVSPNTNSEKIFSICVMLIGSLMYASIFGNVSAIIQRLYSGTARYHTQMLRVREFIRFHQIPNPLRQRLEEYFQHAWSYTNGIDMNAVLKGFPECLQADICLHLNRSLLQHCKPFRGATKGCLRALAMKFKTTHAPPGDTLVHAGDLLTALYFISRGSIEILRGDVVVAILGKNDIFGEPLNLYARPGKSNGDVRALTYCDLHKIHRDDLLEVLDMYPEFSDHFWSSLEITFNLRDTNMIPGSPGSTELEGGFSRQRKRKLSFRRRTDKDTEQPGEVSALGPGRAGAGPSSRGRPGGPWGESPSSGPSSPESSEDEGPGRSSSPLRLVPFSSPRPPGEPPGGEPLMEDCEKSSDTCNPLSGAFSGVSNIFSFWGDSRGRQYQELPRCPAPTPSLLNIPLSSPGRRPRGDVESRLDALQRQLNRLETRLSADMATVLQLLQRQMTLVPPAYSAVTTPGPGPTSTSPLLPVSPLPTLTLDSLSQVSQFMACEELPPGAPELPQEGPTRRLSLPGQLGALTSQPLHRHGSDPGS

With N[C@H](CO)Cn1ccc(-c2ccc(Oc3ncc(-c4cc[nH]n4)cc3F)cc2)n1 as the molecule, how does the concentration at 4 h [1] read?
Its concentration at 4 h is 367 nM.

What about the bioavailability [2] of the same molecule?
The bioavailability was 39%.

What about the MRT [3] of the same molecule?
The MRT was 28 h.

What about the CLH [4] of the same molecule?
Its CLH is 20 µL/min/mg.

And the MRT [5]?
The MRT was 16 h.

What about the CLH [6] of the same molecule?
The CLH was 6 µL/min/mg.

And the AUC(0-inf) [7]?
The AUC(0-inf) was 15 µM·h.

What about the inhibition in vivo at 10 mg/kg [8] of the same molecule?
Its inhibition in vivo at 10 mg/kg is 95%.

What about the concentration at 2 h (in vivo [9]) of the same molecule?
The concentration at 2 h was 2600 nM.

What about the AUC(0-inf) (in vivo [10]) of the same molecule?
The AUC(0-inf) was 3.87 µM·h.

And the clearance [11]?
Its clearance is 7.3 mL/min/kg.

What about the IC50 [12] of the same molecule?
Its IC50 is > 30 µM.

What about the inhibition in vivo at 0.3 mg/kg [13] of the same molecule?
The inhibition in vivo at 0.3 mg/kg was 81%.

What about the AUC(0-inf) [14] of the same molecule?
Its AUC(0-inf) is 59.2 µM·h.

What about the MRT (in vivo [15]) of the same molecule?
The MRT was 4.6 h.

And the solubility [16]?
The solubility was 27 µg/mL (≈ 68.5 µM).

What about the inhibition [17] of the same molecule?
Its inhibition is 100%.

And the logD (physchem)?
The logD was 2.

And the bioavailability [18]?
The bioavailability was 39%.

What about the Vd (in vivo [19]) of the same molecule?
The Vd was 5.5 L/kg.

And the IC50 [20]?
Its IC50 is < 0.003 µM.

And the IC50 [21]?
The IC50 was 27 µM.

What about the AUC(0-inf) [22] of the same molecule?
Its AUC(0-inf) is 4.99 µM·h.

What about the solubility [23] of the same molecule?
Its solubility is > 2000 µg/mL.

And the Vd [24]?
Its Vd is 7 L/kg.

What about the Activity (Mus musculus) of the same molecule?
Its Activity is “Active”.

And the Cmax [25]?
The Cmax was 351 nM.

What about the microsomal CLint (in vitro [26]) of the same molecule?
The microsomal CLint was < 25 µL/min/mg.

And the AUC(0-inf) [27]?
The AUC(0-inf) was 5.51 µM·h.

What about the microsomal CLint (in vitro [28]) of the same molecule?
The microsomal CLint was 90 µL/min/mg.

And the inhibition in vivo at 3 mg/kg [29]?
The inhibition in vivo at 3 mg/kg was 96%.

And the Papp A→B (in vitro [30])?
Its Papp A→B is 12 ×10⁻⁶ cm/s.

And the half-life [31]?
Its half-life is 13 h.

And the inhibition in vivo at 0.03 mg/kg [32]?
Its inhibition in vivo at 0.03 mg/kg is 52%.

What about the concentration at 24 h (in vivo [33]) of the same molecule?
Its concentration at 24 h is 32 nM.
